Like-named read-outs stand apart in the source and are kept apart here.
How the values were obtained:
A2780 ovarian cancer = experiment: MTT proliferation inhibition, A2780; type: cell-based; details: Homo sapiens, A2780, read-out: Proliferation inhibition rate, A2780 Ovarian cancer
Excerpt: (§1) 1. Cytotoxicity Assay Using Human Tumor Cell Lines
(§2) Paclitaxel was used as the positive drug.

Hela cervical cancer = experiment: MTT proliferation inhibition, HeLa; type: cell-based; details: Homo sapiens, read-out: Proliferation inhibition rate, HeLa Uterin cancer
Excerpt: as §1, §2

[1] = test system: MCF-7 breast cancer cells; experiment: MTT proliferation inhibition, MCF-7; type: cell-based; details: Homo sapiens, MCF7, read-out: Proliferation inhibition rate, MCF-7 Breast cancer
Excerpt: as §1, §2

[2] = test system: NCI-H460 non-small cell lung cancer; experiment: MTT proliferation inhibition, NCI-H460; type: cell-based; details: Homo sapiens, NCI-H460, read-out: Proliferation inhibition rate, NCI-H460 Non-small cell lung cancer
Excerpt: as §1, §2

A375 melanoma = experiment: MTT proliferation inhibition, A375; type: cell-based; details: Homo sapiens, A-375, read-out: Proliferation inhibition rate, A375 Melanoma
Excerpt: as §1, §2

HT-29 colon cancer = experiment: MTT proliferation inhibition, HT-29; type: cell-based; details: Homo sapiens, HT-29, read-out: Proliferation inhibition rate, HT29 Colon cancer
Excerpt: as §1, §2

HL-60 leukemia = experiment: MTT proliferation inhibition, HL-60; type: cell-based; details: Homo sapiens, HL-60, read-out: Proliferation inhibition rate, HL60 Leukemia
Excerpt: as §1, §2

Du145 prostate cancer = experiment: MTT proliferation inhibition, Du145; type: cell-based; details: Homo sapiens, DU-145, read-out: Proliferation inhibition rate, DU145 Prostate cancer
Excerpt: as §1, §2

[3] = test system: MDA-MB-436 breast cancer cells; experiment: MTT proliferation inhibition, MDA-MB-436; type: cell-based; details: Homo sapiens, MDA-MB-436, read-out: Proliferation inhibition rate, MDA-MB-436 Breast cancer
Excerpt: as §1, §2

LN-18 = experiment: MTT proliferation inhibition, LN-18; type: cell-based; details: Homo sapiens, LN-18, read-out: Proliferation inhibition rate, LN-18 Gastric canser
Excerpt: as §1, §2

BGC-823 gastric cancer = experiment: MTT proliferation inhibition, BGC-823; type: cell-based; details: Homo sapiens, BGC-823, read-out: Proliferation inhibition rate, BGC-823 Gastric cancer
Excerpt: as §1, §2

[4] = test system: A549 non-small cell lung cancer; experiment: MTT proliferation inhibition, A549; type: cell-based; details: Homo sapiens, A549, read-out: Proliferation inhibition rate, A549 Non-small cell lung cancer
Excerpt: as §1, §2

B16 melanoma = experiment: MTT proliferation inhibition, B16; type: cell-based; details: B16, read-out: Proliferation inhibition rate, B16 Melanoma
Excerpt: as §1, §2

HCT 116 colon cancer = experiment: MTT proliferation inhibition, HCT 116; type: cell-based; details: Homo sapiens, HCT-116, read-out: Proliferation inhibition rate, HCT 116 Colon cancer
Excerpt: as §1, §2

K562 leukemia = experiment: MTT proliferation inhibition, K562; type: cell-based; details: Homo sapiens, K562, read-out: Proliferation inhibition rate, K562 Leukemia
Excerpt: as §1, §2

LNCaP prostate cancer = experiment: MTT proliferation inhibition, LNCaP; type: cell-based; details: Homo sapiens, read-out: Proliferation inhibition rate, LNCaP Prostate cancer
Excerpt: as §1, §2

[5] = test system: breast cancer cell line MCF-7; experiment: IC50 on breast cancer cell line MCF-7; type: cell-based; details: Homo sapiens, MCF7, 72 h, read-out: MCF-7 (IC50, nM)
Procedure: From the activity evaluation data of the above-mentioned preliminary screen, it can be seen that the series of taxanes derivatives synthesized in the present invention have activity. Afterward, the compounds are investigated to examine their IC50 values on breast cancer cell line MCF-7. […] Experiments for each compound were independently repeated for three times and multiple holes were used in each experiment. The exposure time of drugs was 72 hours.

[6] = Caco-2 cell monolayer membrane transport assay (Papp and recovery); type: in vitro ADME; details: human, Caco-2, Caco-2, A-B
Excerpt: Caco-2 Cell Monolayer Membrane Transport Assay
Human-derived colorectal adenocarcinoma cell line Caco-2 cell monolayer model was used to study the bidirectional transport of the target compounds from the apical (AP) side to the basolateral (BL) side and from BL side to AP side. HPLC was used for quantitative analysis to calculate transport parameters, apparent permeability coefficient (Papp) and the efflux ratio.

[7] = Mean, read-out: Recovery rate in mass, Mean
[8] = Sample-01, read-out: Papp A-B, Sample-01
[9] = Sample-01, read-out: Recovery rate in mass, Sample-01
[10] = Sample-02, read-out: Papp A-B, Sample-02
[11] = Sample-02, read-out: Recovery rate in mass, Sample-02

Row | SMILES | inhibition at 1 µM (A2780 ovarian cancer) | inhibition at 1 µM (Hela cervical cancer) | inhibition at 1 µM [1] | inhibition at 1 µM [2] | inhibition at 1 µM (A375 melanoma) | inhibition at 1 µM (HT-29 colon cancer) | inhibition at 1 µM (HL-60 leukemia) | inhibition at 1 µM (Du145 prostate cancer) | inhibition at 1 µM [3] | inhibition at 1 µM (LN-18) | inhibition at 1 µM (BGC-823 gastric cancer) | inhibition at 1 µM [4] | inhibition at 1 µM (B16 melanoma) | inhibition at 1 µM (HCT 116 colon cancer) | inhibition at 1 µM (K562 leukemia) | inhibition at 1 µM (LNCaP prostate cancer) | IC50 [5] | recovery [6, 7] | Papp A→B [6, 8] | recovery [6, 9] | further results
1 | COC(=O)O[C@H]1C(=O)[C@]2(C)[C@@H](OC)C[C@H]3OC[C@@]3(OC(C)=O)[C@H]2[C@H](OC(=O)c2ccccc2)[C@]23OC(=O)O[C@H]2[C@H](OC(=O)[C@H](O)[C@@H](NC(=O)OC(C)(C)C)c2ccccc2)C(C)=C1C3(C)C [PCMI-12] | 94.3% | 100% | 81.8% | 82.3% | 92% | 85.4% | 97.2% | 86.7% | 81.4% | 93.4% | 93% | 73.6% | 75.9% | 66.6% | 91.2% | 86.3% | 3.24 ± 0.04 nM | 27.8 to 39.5% | < 1.36 ×10⁻⁶ cm/s | 27.8 to 29.1% | Papp A→B ([6]; Mean, read-out: Papp A-B, Mean): < 1.43 ×10⁻⁶ cm/s; Papp A→B [6, 10]: < 1.43 ×10⁻⁶ cm/s; recovery [6, 11]: 38.2 to 39.5%
2 | CCSC(=O)O[C@H]1C(=O)[C@]2(C)[C@@H](OC)C[C@H]3OC[C@@]3(OC(C)=O)[C@H]2[C@H](OC(=O)c2ccccc2)[C@]23OC(=O)O[C@H]2[C@H](OC(=O)[C@H](O)[C@@H](NC(=O)OC(C)(C)C)c2ccccc2)C(C)=C1C3(C)C [PCMI-13] | 95.9% | 100% | 84.7% | 86.2% | 93.1% | 87.4% | 97.5% | 90.7% | 81% | 93.8% | 94% | 77.1% | 81.2% | 68.5% | 94.2% | 86.3% | 3.89 ± 0.12 nM | 40.8 to 43.1% | < 1.3 ×10⁻⁶ cm/s | 40.8 to 42% | Papp A→B ([6]; Mean, read-out: Papp A-B, Mean): < 1.67 ×10⁻⁶ cm/s; Papp A→B [6, 10]: < 1.67 ×10⁻⁶ cm/s; recovery [6, 11]: 41.5 to 43.1%
3 | CO[C@H]1C(=O)[C@]2(C)[C@@H](OC(=O)N(C)C)C[C@H]3OC[C@@]3(OC(C)=O)[C@H]2[C@H](OC(=O)c2ccccc2)[C@]23OC(=O)O[C@H]2[C@H](OC(=O)[C@H](O)[C@@H](NC(=O)OC(C)(C)C)c2ccccn2)C(C)=C1C3(C)C [PCMI-15] | 95.7% | 101% | 95.5% | 86% | 97.9% | 88.7% | 97.8% | 90.8% | 82% | 95.7% | 95% | 74.6% | 80.8% | 68.3% | 93.2% | 86.7% | 18.2 ± 0.24 nM | 79.3% | 2.14 ×10⁻⁶ cm/s | 83.7% | Papp A→B [6, 10]: 2.78 ×10⁻⁶ cm/s; recovery [6, 11]: 74.8%
4 | CO[C@H]1C(=O)[C@]2(C)[C@@H](OC(=O)N(C)C)C[C@H]3OC[C@@]3(OC(C)=O)[C@H]2[C@H](OC(=O)c2ccccc2)[C@]23OC(=O)O[C@H]2[C@H](OC(=O)[C@H](O)[C@H](CC(C)C)NC(=O)OC(C)(C)C)C(C)=C1C3(C)C [PCMI-16] | 96.1% | 102% | 97.2% | 87.2% | 96.3% | 89.2% | 97.8% | 91.4% | 81.2% | 95.2% | 95.3% | 74.7% | 83.1% | 67.1% | 95% | 86.8% | 21.17 ± 0.21 nM | 33.1% | 1.41 ×10⁻⁶ cm/s | 32.7% | Papp A→B ([6]; Mean, read-out: Papp A-B, Mean): 1.64 ×10⁻⁶ cm/s; Papp A→B [6, 10]: 1.87 ×10⁻⁶ cm/s; recovery [6, 11]: 33.5%
5 | COC(=O)O[C@H]1C[C@H]2OC[C@@]2(OC(C)=O)[C@H]2[C@H](OC(=O)c3ccccc3)[C@]34OC(=O)O[C@H]3[C@H](OC(=O)[C@H](O)[C@@H](NC(=O)OC(C)(C)C)c3ccccn3)C(C)=C([C@@H](OC)C(=O)[C@]12C)C4(C)C [PCMI-18] | 95.7% | 98.8% | 96.2% | 88.6% | 95.1% | 85.2% | 97.8% | 89.7% | 82.3% | 94.7% | 94.3% | 78.7% | 81.2% | 68.3% | 94.5% | 84.6% | 4.12 ± 0.16 nM | 88.3% | 2.65 ×10⁻⁶ cm/s | 85.6% | Papp A→B ([6]; Mean, read-out: Papp A-B, Mean): 2.49 ×10⁻⁶ cm/s; Papp A→B [6, 10]: 2.33 ×10⁻⁶ cm/s; recovery [6, 11]: 90.9%
6 | CCSC(=O)O[C@H]1C[C@H]2OC[C@@]2(OC(C)=O)[C@H]2[C@H](OC(=O)c3ccccc3)[C@]34OC(=O)O[C@H]3[C@H](OC(=O)[C@H](O)[C@@H](NC(=O)OC(C)(C)C)c3ccccc3)C(C)=C([C@@H](OC)C(=O)[C@]12C)C4(C)C [PCMI-21] | 96.4% | 99.5% | 88.7% | 85.5% | 96.7% | 87.7% | 96.5% | 90.6% | 83.1% | 94.7% | 93.3% | 74.9% | 75.8% | 70.1% | 95% | 87.4% | 3.46 ± 0.16 nM | 72% | 2.32 ×10⁻⁶ cm/s | 76.6% | Papp A→B ([6]; Mean, read-out: Papp A-B, Mean): 2.45 ×10⁻⁶ cm/s; Papp A→B [6, 10]: 2.58 ×10⁻⁶ cm/s; recovery [6, 11]: 67.5%

— US9890175B2, “Taxane compound, and preparation method and use thereof” (JIANGSU TASLY DIYI PHARMACEUTICAL CO., LTD., priority 2013, dated 2018)
